{"source": "the supplement of paper PMC10307832", "experiment_in_all_cases": "relative viability (nuclei count vs DMSO), 5 days (fraction); higher = more cells survive", "key": {"[1]": {"compound": "CCCS(=O)(=O)Nc1ccc(F)c(C(=O)c2c[nH]c3ncc(-c4ccc(Cl)cc4)cc23)c1F [Vemurafenib] + CC(C)C[C@H](NC(=O)[C@H](Cc1ccccc1)NC(=O)c1cnccn1)B(O)O [Bortezomib] (partner 0.002 µM)", "how_it_was_run": "(§1)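 Lung cancer cell lines in 1536-well plates were dosed by pin tool the day after seeding, either with one drug alone or with a fixed anchor-drug dose plus five library-drug doses (not always all listed) in √10 steps. After 5 days, cells were fixed and their nuclei stained in one step (final 0.05% Triton X-100, 1% formaldehyde, 1 ug/ml Hoechst), then counted on 4× images. Relative viability is the nuclei count in treated wells divided by that in vehicle wells. Values are medians of duplicate plates.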"}, "[2]": {"compound": "CCCS(=O)(=O)Nc1ccc(F)c(C(=O)c2c[nH]c3ncc(-c4ccc(Cl)cc4)cc23)c1F [Vemurafenib] + COc1cc2c(Oc3ccc(NC(=O)C4(C(=O)Nc5ccc(F)cc5)CC4)cc3F)ccnc2cc1OCCCN1CCOCC1 [Foretinib] (partner 0.25 µM)", "how_it_was_run": "as §1"}, "[3]": {"compound": "Cc1nc(NC(=O)N2CCC[C@H]2C(N)=O)sc1-c1ccnc(C(C)(C)C(F)(F)F)c1 [Alpelisib] + CC(C)C[C@H](NC(=O)[C@H](Cc1ccccc1)NC(=O)c1cnccn1)B(O)O [Bortezomib] (partner 0.002 µM)", "how_it_was_run": "as §1"}, "[4]": {"compound": "CCCS(=O)(=O)Nc1ccc(F)c(C(=O)c2c[nH]c3ncc(-c4ccc(Cl)cc4)cc23)c1F [Vemurafenib] + CS(=O)(=O)N1CCN(Cc2cc3nc(-c4cccc5[nH]ncc45)nc(N4CCOCC4)c3s2)CC1 [Pictilisib] (partner 1 µM)", "how_it_was_run": "as §1"}, "[5]": {"compound": "CCCS(=O)(=O)Nc1ccc(F)c(C(=O)c2c[nH]c3ncc(-c4ccc(Cl)cc4)cc23)c1F [Vemurafenib] + CC(=O)c1c(C)c2cnc(Nc3ccc(N4CCNCC4)cn3)nc2n(C2CCCC2)c1=O [Palbociclib] (partner 0.5 µM)", "how_it_was_run": "as §1"}}, "data": [{"cell line": "UMC-11", "values": [{"measurement": "relative viability", "setting": "[1]; first compound 0.03162 µM", "result": 0.468}, {"measurement": "relative viability", "setting": "[1]; first compound 0.1 µM", "result": 0.713}, {"measurement": "relative viability", "setting": "[1]; first compound 0.3162 µM", "result": 0.57}, {"measurement": "relative viability", "setting": "[1]; first compound 1 µM", "result": 0.296}, {"measurement": "relative viability", "setting": "[2]; first compound 0.03162 µM", "result": 1.02}, {"measurement": "relative viability", "setting": "[2]; first compound 0.1 µM", "result": 1}, {"measurement": "relative viability", "setting": "[2]; first compound 0.3162 µM", "result": 1.15}, {"measurement": "relative viability", "setting": "[2]; first compound 1 µM", "result": 0.923}, {"measurement": "relative viability", "setting": "[3]; first compound 0.04 µM", "result": 0.677}, {"measurement": "relative viability", "setting": "[3]; first compound 0.1265 µM", "result": 0.981}, {"measurement": "relative viability", "setting": "[3]; first compound 0.4 µM", "result": 0.672}, {"measurement": "relative viability", "setting": "[3]; first compound 1.265 µM", "result": 0.734}, {"measurement": "relative viability", "setting": "[3]; first compound 4 µM", "result": 0.465}, {"measurement": "relative viability", "setting": "[4]; first compound 0.03162 µM", "result": 0.867}, {"measurement": "relative viability", "setting": "[4]; first compound 0.1 µM", "result": 0.801}, {"measurement": "relative viability", "setting": "[4]; first compound 0.3162 µM", "result": 0.714}, {"measurement": "relative viability", "setting": "[4]; first compound 1 µM", "result": 0.348}, {"measurement": "relative viability", "setting": "[5]; first compound 0.03162 µM", "result": 0.328}, {"measurement": "relative viability", "setting": "[5]; first compound 0.1 µM", "result": 0.313}, {"measurement": "relative viability", "setting": "[5]; first compound 1 µM", "result": 0.315}]}]}
